Assays:
[1] = Saturation solubility of rivastigmine free base in the silicone adhesive; type: physicochemical
[2] = Rivastigmine's biopharmaceutical properties in humans; type: in vivo
Text: Little has been published in detail on rivastigmine's biopharmaceutical properties in humans. […] It is subject to pre-systemic and systemic metabolism.

CCN(C)C(=O)Oc1cccc([C@H](C)N(C)C)c1 [rivastigmine]
saturation solubility in the silicone adhesive [1]: about 5 %-wt.
absorption [2]: rapidly and completely absorbed
metabolism [2]: metabolised mainly through hydrolysis by esterases

From patent US20140134230A1, “TRANSDERMAL THERAPEUTIC SYSTEM” (priority 2005, published 2014)
